According to ChEMBL document CHEMBL4619745, “Identification of 2-((2,3-dihydrobenzo[b][1,4]dioxin-6-yl)amino)-N-phenylpropanamides as a novel class of potent DprE1 inhibitors” (Bioorg Med Chem Lett, 2020):
In brackets after ≈: the same amount, converted by molar mass.

Key:
[1] = system: Mycobacterium tuberculosis; assay: Ratio of MIC for Mycobacterium tuberculosis H37Rv overexpressing DprE1 to MIC for Mycobacterium tuberculosis H37Rv; assay type: functional
[2] = system: Mycobacterium tuberculosis; assay: Antimycobacterial activity against Mycobacterium tuberculosis H37Rv overexpressing DprE1; assay type: functional

`CC(Nc1ccc2c(c1)OCCO2)C(=O)Nc1ccc(Br)cc1` (racemic) gave a Ratio [1] of 8 and an MIC [2] of 62.5 µM (≈ 23.6 µg/mL).
